Data reported in ChEMBL document CHEMBL4265901, “Eupatilin inhibits angiogenesis-mediated human hepatocellular metastasis by reducing MMP-2 and VEGF signaling” (Bioorg Med Chem Lett, 2018).
Activity calls are given as the source filed them. The calls are words filed in the database; no cut-off is given here.

Columns and labels:
[1] = system: HepG2; experiment: Antiproliferative activity against human HepG2 cells after 24 hrs by MTT assay; assay type: functional, cell-based
[2] = system: HUVEC; experiment: Cytotoxicity activity against HUVEC assessed as decrease in cell viability up to 6.25 uM after 24 hrs by MTT assay; assay type: cell-based; settings: human
[3] = system: HUVEC; experiment: Downregulation of VEGF level in HUVEC at 6.25 uM after 24 hrs by Western blot analysis relative to control; assay type: functional, Homo sapiens
[4] = biological target: RAC-alpha serine/threonine-protein kinase (Homo sapiens) (UniProt P31749); experiment: Inhibition of Akt phosphorylation in HUVEC at 6.25 uM after 24 hrs by Western blot analysis relative to control; assay type: cell-based
[5] = system: HUVEC; experiment: Downregulation of HIF-1 alpha protein level in HUVEC at 6.25 uM after 24 hrs by Western blot analysis relative to control; assay type: functional, Homo sapiens
[6] = system: SNU-182; experiment: Cytotoxicity against human SNU182 cells assessed as decrease in cell viability up to 20 uM after 48 hrs by MTT assay; assay type: cell-based; settings: snu-182, 48 h
[7] = system: HUVEC; experiment: Antiangiogenic activity in HUVEC assessed as inhibition of tube formation at 3.125 uM after 24 hrs by light microscopic analysis relative to control; assay type: functional; settings: Homo sapiens
[8] = system: HUVEC; experiment: Antiangiogenic activity in HUVEC assessed as inhibition of tube formation at 6.25 uM after 24 hrs by light microscopic analysis relative to control; assay type: functional; settings: Homo sapiens
[9] = biological target: RAC-alpha serine/threonine-protein kinase (Homo sapiens) (UniProt P31749); experiment: Inhibition of Akt phosphorylation in HUVEC at 3.125 uM after 24 hrs by Western blot analysis relative to control; assay type: cell-based
[10] = system: SNU-182; experiment: Downregulation of MMP2 mRNA levels in human SNU182 cells at 20 uM after 24 hrs by quantitative real-time qPCR analysis; assay type: functional, cell-based
[11] = system: SNU-182; experiment: Downregulation of MMP9 mRNA levels in human SNU182 cells at 20 uM after 24 hrs by quantitative real-time qPCR analysis; assay type: functional, cell-based
[12] = system: HepG2; experiment: Antiproliferative activity against human HepG2 cells at 200 uM after 24 hrs by MTT assay; assay type: functional
[13] = system: HUVEC; experiment: Downregulation of VEGF protein level in HUVEC at 3.125 uM after 24 hrs by Western blot analysis relative to control; assay type: functional, Homo sapiens
[14] = system: HUVEC; experiment: Downregulation of HIF-1 alpha protein level in HUVEC at 3.125 uM after 24 hrs by Western blot analysis relative to control; assay type: functional, Homo sapiens
[15] = system: HUVEC; experiment: Cytotoxicity activity against HUVEC assessed as decrease in cell viability at 12.5 to 100 uM after 24 hrs by MTT assay; assay type: cell-based; settings: human
[16] = system: HUVEC; experiment: Antiangiogenic activity in HUVEC assessed as inhibition of tube formation at 1.6 uM after 24 hrs by light microscopic analysis relative to control; assay type: functional; settings: Homo sapiens

RAC-alpha serine/threonine-protein kinase (Homo sapiens), sequence (P31749 whole entry): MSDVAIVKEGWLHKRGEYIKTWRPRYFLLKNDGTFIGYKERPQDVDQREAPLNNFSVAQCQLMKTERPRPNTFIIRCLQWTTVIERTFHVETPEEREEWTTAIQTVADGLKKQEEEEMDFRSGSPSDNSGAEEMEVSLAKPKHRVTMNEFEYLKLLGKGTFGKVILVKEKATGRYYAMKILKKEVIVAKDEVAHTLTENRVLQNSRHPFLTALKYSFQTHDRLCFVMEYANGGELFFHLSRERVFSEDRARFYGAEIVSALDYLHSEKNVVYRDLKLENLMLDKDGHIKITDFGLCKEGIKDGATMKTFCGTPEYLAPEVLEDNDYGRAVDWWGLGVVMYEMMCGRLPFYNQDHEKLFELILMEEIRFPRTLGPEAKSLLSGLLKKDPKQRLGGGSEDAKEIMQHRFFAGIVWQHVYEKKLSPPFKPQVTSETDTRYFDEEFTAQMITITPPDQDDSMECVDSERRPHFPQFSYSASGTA

Row | fold change (FC) [4] | fold change (FC) [9] | Structure (SMILES) | Activity [1] | Activity [2] | Activity [3] [%] | fold change (FC) [5] | Activity [6] | inhibition at 3.125 µM [7] [%] | inhibition at 6.25 µM [8] [%] | Activity [10] | Activity [11] | Activity [12] [%] | fold change (FC) [13] | fold change (FC) [14] | Activity [15] | inhibition at 1.6 µM [16] [%]
1 | 0.8 | 0.82 | COc1ccc(-c2cc(=O)c3c(O)c(OC)c(O)cc3o2)cc1OC [EUPATILIN] | Dose-dependent effect | Non-Toxic | 31 | 0.84 | Non-Toxic | 14.1 | 24.8 | Active | inactive | 43.24 | 0.88 | 0.83 | Toxic | –
2 | – | – | CC(C)=CC[C@@H](O)C1=CC(=O)c2c(O)ccc(O)c2C1=O [SHIKONIN] | – | – | – | – | – | – | – | – | – | – | – | – | – | 31.8
